From BigSolDB 2.1

c1ccc2c(c1)Cc1ccccc1-2
solubility (mole fraction)
Conditions | 278.15 K | 283.15 K | 288.15 K | 293.15 K | 298.15 K | 303.15 K | 308.15 K | 313.15 K | 318.15 K
in THF | 0.12 | 0.13 | 0.148 | 0.163 | 0.182 | 0.2 | 0.225 | 0.248 | 0.273
in acetone | 0.0353 | 0.0406 | 0.0482 | 0.0567 | 0.0658 | 0.0779 | 0.0931 | 0.109 | 0.126
in acetonitrile | 0.0101 | 0.0113 | 0.0138 | 0.0161 | 0.0197 | 0.0235 | 0.0288 | 0.0345 | 0.0406
in ethanol | 0.0038 | 0.00448 | 0.0055 | 0.00669 | 0.00816 | 0.00937 | 0.0111 | 0.0132 | 0.0154
in ethyl acetate | 0.046 | 0.0542 | 0.062 | 0.0737 | 0.0866 | 0.102 | 0.119 | 0.139 | 0.163
in ethyl formate | 0.0346 | 0.0395 | 0.046 | 0.0552 | 0.0654 | 0.0781 | 0.0933 | 0.112 | 0.133
in isobutyl acetate | 0.0546 | 0.0611 | 0.0718 | 0.0816 | 0.0914 | 0.104 | 0.124 | 0.142 | 0.162
in isopropanol | 0.00401 | 0.0045 | 0.00559 | 0.00675 | 0.00808 | 0.00943 | 0.0121 | 0.0149 | 0.0177
in isopropyl acetate | 0.044 | 0.0504 | 0.058 | 0.0695 | 0.0812 | 0.0936 | 0.11 | 0.127 | 0.148
in methanol | 0.00199 | 0.00235 | 0.00275 | 0.00313 | 0.00395 | 0.00452 | 0.00528 | 0.00645 | 0.00709
in methyl acetate | 0.0374 | 0.0422 | 0.0498 | 0.0607 | 0.0712 | 0.0856 | 0.1 | 0.12 | 0.142
in n-butyl acetate | 0.0693 | 0.0756 | 0.0874 | 0.0991 | 0.111 | 0.121 | 0.146 | 0.167 | 0.19
in n-propanol | 0.0052 | 0.00612 | 0.0072 | 0.009 | 0.0112 | 0.013 | 0.0155 | 0.0186 | 0.0216
in n-propyl acetate | 0.0596 | 0.0671 | 0.0763 | 0.0862 | 0.0969 | 0.108 | 0.134 | 0.153 | 0.176
